Test results reported in ChEMBL document CHEMBL2074332, “Molecular and physiological evidence for multifunctionality of carnitine/organic cation transporter OCTN2” (Mol Pharmacol, 2001).

How the values were obtained:
[1] = target: T1, OCTN2 (organic cation/carnitine transporter 2) (Mus musculus, UniProt Q9Z0E8); experiment: TP_TRANSPORTER: inhibition of Carnitine uptake (Carnitine: 0.01 uM, Acetyl-beta-methylcholine: 500 uM) in OCTN2-expressing HEK293 cells; type: functional, cell-based; design: scale not given: the % may be the effect or the level left; details: human, HEK293 cells that express OCTN2, probe carnitine; read-out: Activity
T1 sequence (Q9Z0E8 whole entry): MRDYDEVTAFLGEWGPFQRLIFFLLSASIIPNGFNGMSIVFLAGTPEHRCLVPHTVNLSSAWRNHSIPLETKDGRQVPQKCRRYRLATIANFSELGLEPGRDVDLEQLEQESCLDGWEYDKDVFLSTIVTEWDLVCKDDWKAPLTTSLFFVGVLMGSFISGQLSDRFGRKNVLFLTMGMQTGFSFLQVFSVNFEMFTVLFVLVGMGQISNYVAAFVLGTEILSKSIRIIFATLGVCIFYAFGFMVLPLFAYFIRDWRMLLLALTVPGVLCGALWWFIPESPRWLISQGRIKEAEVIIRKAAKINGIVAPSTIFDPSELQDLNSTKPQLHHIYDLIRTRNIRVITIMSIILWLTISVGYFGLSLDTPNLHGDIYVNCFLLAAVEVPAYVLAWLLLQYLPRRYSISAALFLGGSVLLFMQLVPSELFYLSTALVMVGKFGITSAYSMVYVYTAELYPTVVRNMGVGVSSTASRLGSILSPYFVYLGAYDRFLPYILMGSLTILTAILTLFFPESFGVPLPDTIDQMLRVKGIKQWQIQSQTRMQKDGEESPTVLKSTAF

[2] = target: T2, Organic cation/carnitine transporter 2 (Mus musculus, UniProt Q9Z0E8); experiment: TP_TRANSPORTER: uptake in OCTN2-expressing HEK293 cells; type: functional, cell-based; details: human
T2 sequence (Q9Z0E8 whole entry): T1 sequence (Q9Z0E8 whole entry)

[3] = target: T1, OCTN2 (organic cation/carnitine transporter 2); experiment: TP_TRANSPORTER: inhibition of Carnitine uptake (Carnitine: 0.01 uM, MPP+: 500 uM) in OCTN2-expressing HEK293 cells; type: functional, cell-based; design: scale not given: the % may be the effect or the level left; details: human, HEK293 cells that express OCTN2, probe carnitine; read-out: Activity
[4] = target: T1, OCTN2 (organic cation/carnitine transporter 2); experiment: TP_TRANSPORTER: inhibition of Carnitine uptake (Carnitine: 0.01 uM, Acetylcholine: 5000 uM) in OCTN2-expressing HEK293 cells; type: functional, cell-based; design: scale not given: the % may be the effect or the level left; details: human, HEK293 cells that express OCTN2, probe carnitine; read-out: Activity
[5] = target: T2, Organic cation/carnitine transporter 2; experiment: TP_TRANSPORTER: inhibition of Carnitine uptake (Carnitine: 0.01 uM, alpha-KG: 500 uM) in OCTN2-expressing HEK293 cells; type: functional, cell-based; details: human, hek293, 500 µM
[6] = target: T2, Organic cation/carnitine transporter 2; experiment: TP_TRANSPORTER: inhibition of Carnitine uptake (Carnitine: 0.01 uM, PAH: 500 uM) in OCTN2-expressing HEK293 cells; type: functional, cell-based; details: human, hek293, 500 µM
[7] = target: T1, OCTN2 (organic cation/carnitine transporter 2); experiment: in vitro; details: human, HEK293 cells that express OCTN2, probe carnitine
Description: TP_TRANSPORTER: inhibition of Carnitine uptake (Carnitine: 0.01 uM, Choline: 500 uM) in OCTN2-expressing HEK293 cells

[8] = target: T1, OCTN2 (organic cation/carnitine transporter 2); experiment: TP_TRANSPORTER: inhibition of Carnitine uptake (Carnitine: 0.01 uM, Diphenhydramine: 500 uM) in OCTN2-expressing HEK293 cells; type: functional, cell-based; design: scale not given: the % may be the effect or the level left; details: human, HEK293 cells that express OCTN2, probe carnitine; read-out: Activity
[9] = target: T1, OCTN2 (organic cation/carnitine transporter 2); experiment: in vitro; details: human, HEK293 cells that express OCTN2, probe carnitine; remark: listed apart in the source
Description: TP_TRANSPORTER: inhibition of Carnitine uptake (Carnitine: 0.01 uM, Dapamine: 5000 uM) in OCTN2-expressing HEK293 cells

[10] = target: T2, Organic cation/carnitine transporter 2; experiment: TP_TRANSPORTER: inhibition of Carnitine uptake (Carnitine: 0.01 uM, Guanidine: 500 uM) in OCTN2-expressing HEK293 cells; type: functional, cell-based; details: human, hek293, 500 µM
[11] = target: T1, OCTN2 (organic cation/carnitine transporter 2); experiment: TP_TRANSPORTER: inhibition of Carnitine uptake (Carnitine: 0.01 uM, Lidocaine: 500 uM) in OCTN2-expressing HEK293 cells; type: functional, cell-based; design: scale not given: the % may be the effect or the level left; details: human, HEK293 cells that express OCTN2, probe carnitine; read-out: Activity
[12] = target: T2, Organic cation/carnitine transporter 2; experiment: TP_TRANSPORTER: inhibition of Carnitine uptake (Carnitine: 0.01 uM, NMN: 500 uM) in OCTN2-expressing HEK293 cells; type: functional, cell-based; details: human, hek293, 500 µM
[13] = target: T1, OCTN2 (organic cation/carnitine transporter 2); experiment: TP_TRANSPORTER: inhibition of Carnitine uptake (Carnitine: 0.01 uM, Norepinephrine: 5000 uM) in OCTN2-expressing HEK293 cells; type: functional, cell-based; design: scale not given: the % may be the effect or the level left; details: human, HEK293 cells that express OCTN2, probe carnitine; read-out: Activity
[14] = target: T1, OCTN2 (organic cation/carnitine transporter 2); experiment: TP_TRANSPORTER: inhibition of Carnitine uptake (Carnitine: 0.01 uM, Procainamide: 500 uM) in OCTN2-expressing HEK293 cells; type: functional, cell-based; design: scale not given: the % may be the effect or the level left; details: human, HEK293 cells that express OCTN2, probe carnitine; read-out: Activity
[15] = target: T1, OCTN2 (organic cation/carnitine transporter 2); experiment: TP_TRANSPORTER: inhibition of Carnitine uptake (Carnitine: 0.01 uM, Pyrilamine: 500 uM) in OCTN2-expressing HEK293 cells; type: functional, cell-based; design: scale not given: the % may be the effect or the level left; details: human, HEK293 cells that express OCTN2, probe carnitine; read-out: Activity
[16] = target: T1, OCTN2 (organic cation/carnitine transporter 2); experiment: TP_TRANSPORTER: inhibition of Carnitine uptake (Carnitine: 0.01 uM, Quinidine: 500 uM) in OCTN2-expressing HEK293 cells; type: functional, cell-based; design: scale not given: the % may be the effect or the level left; details: human, HEK293 cells that express OCTN2, probe carnitine; read-out: Activity
[17] = target: T1, OCTN2 (organic cation/carnitine transporter 2); experiment: TP_TRANSPORTER: inhibition of Carnitine uptake (Carnitine: 0.01 uM, Serotonin: 5000 uM) in OCTN2-expressing HEK293 cells; type: functional, cell-based; design: scale not given: the % may be the effect or the level left; details: human, HEK293 cells that express OCTN2, probe carnitine; read-out: Activity
[18] = target: T1, OCTN2 (organic cation/carnitine transporter 2); experiment: in vitro; details: human, HEK293 cells that express OCTN2, probe carnitine; remark: listed apart in the source
Description: TP_TRANSPORTER: inhibition of Carnitine uptake (Carnitine: 0.01 uM, TEA: 500 uM) in OCTN2-expressing HEK293 cells

[19] = target: T1, OCTN2 (organic cation/carnitine transporter 2); experiment: in vitro; details: human, HEK293 cells that express OCTN2, probe carnitine; remark: listed apart in the source
Description: TP_TRANSPORTER: inhibition of Carnitine uptake (Carnitine: 0.01 uM, Thiamine: 5000 uM) in OCTN2-expressing HEK293 cells

[20] = target: T1, OCTN2 (organic cation/carnitine transporter 2); experiment: TP_TRANSPORTER: inhibition of Carnitine uptake (Carnitine: 0.01 uM, Verapamil: 500 uM) in OCTN2-expressing HEK293 cells; type: functional, cell-based; design: scale not given: the % may be the effect or the level left; details: human, HEK293 cells that express OCTN2, probe carnitine; read-out: Activity

With `CC(=O)OC(C)C[N+](C)(C)C` (centres undefined) the activity at 500 µM [1] was 82.5%.
For `C[n+]1ccc(-c2ccccc2)cc1`, the Activity [2] was “substrate [+]” and the activity at 500 µM [3] was 72.9%.
For `CC(=O)O[C@H](CC(=O)[O-])C[N+](C)(C)C` [ACETYLCARNITINE], the Activity [2] was “substrate [+]”.
`CC(=O)OCC[N+](C)(C)C` [ACETYLCHOLINE] gave an activity at 5000 µM [4] of 34.2%.
For `O=C(O)CCC(=O)C(=O)O` [ALPHA-KETOGLUTARIC ACID], the Activity [5] was “is not an inhibitor [-]”.
In the case of `Nc1ccc(C(=O)NCC(=O)O)cc1` [AMINOHIPPURIC ACID], the Activity [6] is reported as “is not an inhibitor [-]” and the Activity [2] is reported as “is not a substrate [-]”.
With `C[N+](C)(C)CCO` [CHOLINE] the activity at 500 µM [7] was 74.6%.
In the case of `CN(C)CCOC(c1ccccc1)c1ccccc1` [DIPHENHYDRAMINE], the activity at 500 µM [8] is reported as 43.6%.
Compound `NCCc1ccc(O)c(O)c1` [DOPAMINE] has an activity at 5000 µM [9] of 70.9%.
`N=C(N)N` [GUANIDINE] was tested, and the Activity [10] was “is not an inhibitor [-]”.
Work on `CCN(CC)CC(=O)Nc1c(C)cccc1C` [LIDOCAINE] yielded an activity at 500 µM [11] of 57.1%.
`CNC(=O)c1cccnc1` [NICOTINYL METHYLAMIDE] was tested, and the Activity [12] was “is not an inhibitor [-]”.
`NC[C@H](O)c1ccc(O)c(O)c1` [NOREPINEPHRINE] was tested, and the activity at 5000 µM [13] was 70.9%.
`CCN(CC)CCNC(=O)c1ccc(N)cc1` [PROCAINAMIDE] showed an activity at 500 µM [14] of 81.3%.
For `COc1ccc(CN(CCN(C)C)c2ccccn2)cc1` [PYRILAMINE], the Activity [2] was “substrate [+]” and the activity at 500 µM [15] was 36.3%.
In the case of `C=C[C@H]1C[N@@]2CC[C@H]1C[C@@H]2[C@@H](O)c1ccnc2ccc(OC)cc12` [QUINIDINE], the activity at 500 µM [16] is reported as 6.1%.
`NCCc1c[nH]c2ccc(O)cc12` [SEROTONIN] showed an activity at 5000 µM [17] of 51.3%.
`CC[N+](CC)(CC)CC` [TETRYLAMMONIUM] showed an activity at 500 µM [18] of 15.4%.
With `Cc1ncc(C[n+]2csc(CCO)c2C)c(N)n1` [THIAMINE ION] the activity at 5000 µM [19] was 65.9%.
`COc1ccc(CCN(C)CCCC(C#N)(c2ccc(OC)c(OC)c2)C(C)C)cc1OC` (centres undefined) [VERAPAMIL] was tested, and the Activity [2] was “substrate [+]” and the activity at 500 µM [20] was 1.3%.
